# In ChEMBL document CHEMBL5143515, “Identification of new halogen-containing 2,4-diphenyl indenopyridin-5-one derivative as a boosting agent for the anticancer responses of clinically available topoisomerase inhibitors” (Eur J Med Chem, 2022):
# The source made the active and inactive calls. No cut-off for these calls is given here.
# Assays:
# [1] = target: DNA topoisomerase 2-alpha (Homo sapiens) (UniProt P11388); assay: Inhibition of recombinant human topoisomerase 2alpha assessed as relaxation of supercoiled plasmid pBR322 DNA at 20 uM by agarose gel electrophoresis (reference value: 48.4%)
# Chain of DNA topoisomerase 2-alpha (Homo sapiens) (P11388 whole entry): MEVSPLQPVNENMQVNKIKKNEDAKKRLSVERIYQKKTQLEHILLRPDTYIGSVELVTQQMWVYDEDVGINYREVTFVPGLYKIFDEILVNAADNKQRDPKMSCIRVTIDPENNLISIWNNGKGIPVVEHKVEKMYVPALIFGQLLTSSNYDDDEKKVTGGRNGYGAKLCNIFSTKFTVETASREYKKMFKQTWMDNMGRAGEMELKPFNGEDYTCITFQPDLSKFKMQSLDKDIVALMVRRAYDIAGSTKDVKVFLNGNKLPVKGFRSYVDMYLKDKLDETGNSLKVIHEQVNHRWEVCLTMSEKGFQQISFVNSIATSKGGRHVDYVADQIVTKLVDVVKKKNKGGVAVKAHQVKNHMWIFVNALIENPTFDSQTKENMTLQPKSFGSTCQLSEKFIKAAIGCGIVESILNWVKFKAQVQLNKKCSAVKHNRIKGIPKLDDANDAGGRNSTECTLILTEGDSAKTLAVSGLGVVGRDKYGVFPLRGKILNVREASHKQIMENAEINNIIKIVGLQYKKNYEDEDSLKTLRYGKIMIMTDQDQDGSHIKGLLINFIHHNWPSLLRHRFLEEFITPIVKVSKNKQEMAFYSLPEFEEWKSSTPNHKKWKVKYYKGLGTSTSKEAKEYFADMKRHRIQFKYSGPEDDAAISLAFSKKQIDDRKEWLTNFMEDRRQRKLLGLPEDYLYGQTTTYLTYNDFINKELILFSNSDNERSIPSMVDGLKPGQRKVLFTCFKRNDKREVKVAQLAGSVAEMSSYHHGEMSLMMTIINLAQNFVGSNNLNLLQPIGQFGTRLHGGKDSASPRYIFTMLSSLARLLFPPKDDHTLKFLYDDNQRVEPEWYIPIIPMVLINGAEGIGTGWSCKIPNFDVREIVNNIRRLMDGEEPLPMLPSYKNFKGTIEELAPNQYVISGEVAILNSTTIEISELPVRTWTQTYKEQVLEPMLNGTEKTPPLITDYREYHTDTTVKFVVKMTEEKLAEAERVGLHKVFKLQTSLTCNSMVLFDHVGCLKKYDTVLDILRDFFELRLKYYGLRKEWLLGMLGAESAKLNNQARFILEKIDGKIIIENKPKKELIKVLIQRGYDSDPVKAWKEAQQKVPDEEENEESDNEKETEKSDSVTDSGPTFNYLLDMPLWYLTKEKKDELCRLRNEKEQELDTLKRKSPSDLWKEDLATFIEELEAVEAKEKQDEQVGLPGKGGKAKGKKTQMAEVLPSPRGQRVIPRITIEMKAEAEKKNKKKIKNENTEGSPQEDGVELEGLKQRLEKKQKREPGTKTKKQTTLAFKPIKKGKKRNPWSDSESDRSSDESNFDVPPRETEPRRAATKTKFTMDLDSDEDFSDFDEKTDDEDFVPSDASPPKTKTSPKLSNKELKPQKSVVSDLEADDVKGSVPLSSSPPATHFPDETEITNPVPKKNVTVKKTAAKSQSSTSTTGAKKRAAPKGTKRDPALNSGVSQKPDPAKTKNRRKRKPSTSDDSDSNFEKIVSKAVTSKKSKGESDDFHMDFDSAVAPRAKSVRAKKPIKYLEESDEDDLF
# [2] = system: Calf thymus DNA; assay: Binding affinity to calf thymus DNA assessed as DNA intercalation by measuring Stem-Volmer quenching constant at 0.01 to 0.1 uM by Hoechst displacement assay; format: nucleic-acid assay; settings: Bos taurus; dose 0.01-0.1 µM
# [3] = system: HCT-15; assay: Antitumor activity against human HCT-15 cells xenografted in female BALB/c nude mouse assessed as decrease in Ki67 expression at 4 mg/kg, ip administered every day for 6 days in combination with etoposide at 2 mg/kg, ip administered every day for 6 days measured by immunohistochemistry analysis; format: functional, organism-based; settings: time 6.0 day
# [4] = Genotoxicity in human HCT-15 cells assessed as production of fragmented DNA tails at 2 to 5 uM and measured in presence of 0.2 uM etoposide by comet assay; format: toxicity, cell-based; settings: hct-15, 5 µM, dose 2-5 µM
# [5] = target: T1, DNA topoisomerase 1 (Homo sapiens) (UniProt P11387); assay: Catalytic inhibitor of non-intercalative topoisomerase 1 (unknown origin) assessed as binding to minor groove at 100 to 500 uM measured by cleavage complex assay; settings: dose 100-500 µM
# T1 sequence (whole entry): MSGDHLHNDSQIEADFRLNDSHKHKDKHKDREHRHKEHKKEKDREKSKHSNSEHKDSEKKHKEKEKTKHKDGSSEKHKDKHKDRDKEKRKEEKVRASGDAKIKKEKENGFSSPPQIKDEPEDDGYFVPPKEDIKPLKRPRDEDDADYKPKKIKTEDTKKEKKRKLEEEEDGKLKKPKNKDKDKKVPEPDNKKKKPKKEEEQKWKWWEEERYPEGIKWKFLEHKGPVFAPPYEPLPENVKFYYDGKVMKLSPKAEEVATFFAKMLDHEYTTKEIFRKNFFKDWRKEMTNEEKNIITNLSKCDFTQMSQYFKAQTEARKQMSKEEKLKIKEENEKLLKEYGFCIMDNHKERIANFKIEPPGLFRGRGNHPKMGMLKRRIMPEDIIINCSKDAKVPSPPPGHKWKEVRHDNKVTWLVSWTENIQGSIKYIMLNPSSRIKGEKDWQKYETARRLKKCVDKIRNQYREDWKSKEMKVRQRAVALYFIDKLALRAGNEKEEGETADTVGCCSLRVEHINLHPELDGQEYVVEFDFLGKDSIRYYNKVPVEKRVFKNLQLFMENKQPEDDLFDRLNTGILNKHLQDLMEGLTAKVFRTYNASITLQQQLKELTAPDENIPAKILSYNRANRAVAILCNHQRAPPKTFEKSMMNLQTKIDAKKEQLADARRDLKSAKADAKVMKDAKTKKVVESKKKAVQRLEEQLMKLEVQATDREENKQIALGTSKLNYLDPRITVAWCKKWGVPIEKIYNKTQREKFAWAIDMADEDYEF
# [6] = system: HCT-15; assay: Antiproliferative activity against human HCT-15 cells after 72 hrs by EZ-Cytox colorimetric assay; format: functional, cell-based; settings: HCT-15, 72 h
# [7] = Toxicity in mouse assessed as reduction in number of red blood cells at 4 mg/kg; format: organism-based; settings: in vivo
# [8] = Toxicity in mouse assessed as reduction in hemoglobin level at 4 mg/kg administered in combination with 2 mg/kg etoposide; format: organism-based; settings: in vivo
# [9] = Genotoxicity in human HCT-15 cells assessed as production of gamma-H2AX at 2 to 5 uM and measured by western blot analysis; format: toxicity, cell-based; settings: hct-15, 5 µM, dose 2-5 µM
# [10] = Genotoxicity in human HCT-15 cells assessed as production of Ub1-gamma-H2AX at 2 to 5 uM and measured by western blot analysis; format: toxicity, cell-based; settings: hct-15, 5 µM, dose 2-5 µM
# [11] = Genotoxicity in human HCT-15 cells assessed as production of Ub1-gamma-H2AX at 2 to 5 uM and measured in presence of 1 nM camptothecin by western blot analysis; format: toxicity, cell-based; settings: hct-15, 5 µM, dose 2-5 µM
# [12] = Toxicity in mouse assessed as reduction in number of white blood cells at 4 mg/kg in presence of 2 mg/kg etoposide; format: organism-based; settings: in vivo
# [13] = Toxicity in mouse assessed as reduction in number of white blood cells at 4 mg/kg; format: organism-based; settings: in vivo
# [14] = Genotoxicity in human HCT-15 cells assessed as production of gamma-H2AX at 2 to 5 uM and measured in presence of 1 nM camptothecin by western blot analysis; format: toxicity, cell-based; settings: hct-15, 5 µM, dose 2-5 µM
# [15] = system: HCT-15; assay: Induction of apoptosis in human HCT-15 cells assessed as change in c-caspase 7 level at 2 to 5 uM in presence of 0.2 uM etoposide and measured by Western blot analysis; format: functional, cell-based; settings: dose 2-5 µM
# [16] = Toxicity in mouse assessed as increase in mean corpuscular volume of RBC at 4 mg/kg; format: organism-based, Erythrocyte; settings: in vivo
# [17] = target: T1, DNA topoisomerase 1 (Homo sapiens); assay: Inhibition of recombinant human topoisomerase 1 assessed as relaxation of supercoiled plasmid pBR322 DNA at 20 uM by agarose gel electrophoresis (reference value: 40.4%)
# [18] = system: HCT-15; assay: Synergistic antiproliferative activity against human HCT-15 cells at 5 uM in presence of 1 nM camptothecin after 72 hrs by WST-1 assay; format: functional, cell-based
# [19] = Cytotoxicity against human MRC5 cells after 72 hrs by EZ-Cytox colorimetric assay; format: toxicity, cell-based
# [20] = system: DU-145; assay: Antiproliferative activity against human DU-145 cells after 72 hrs by EZ-Cytox colorimetric assay; format: functional, cell-based; settings: DU-145, 72 h
# [21] = Genotoxicity in human HCT-15 cells assessed as production of fragmented DNA tails at 2 to 5 uM and measured by comet assay; format: toxicity, cell-based; settings: hct-15, 5 µM, dose 2-5 µM
# [22] = system: HCT-15; assay: Induction of apoptosis in human HCT-15 cells assessed as change in c-PARP level at 2 to 5 uM in presence of 0.2 uM etoposide and measured by Western blot analysis; format: functional, cell-based; settings: dose 2-5 µM
# [23] = Cytotoxicity against mouse M2-10B4 cells after 72 hrs by EZ-Cytox colorimetric assay; format: toxicity, cell-based
# [24] = Toxicity in mouse assessed as reduction in number of red blood cells at 4 mg/kg administered in combination with 2 mg/kg etoposide; format: organism-based; settings: in vivo
# [25] = Toxicity in mouse assessed as reduction in hemoglobin level at 4 mg/kg; format: organism-based; settings: in vivo
# [26] = Toxicity in mouse assessed as reduction in number of absolute neutrophil count at 4 mg/kg; format: organism-based; settings: in vivo
# [27] = system: HCT-15; assay: Antitumor activity against human HCT-15 cells xenografted in female BALB/c nude mouse assessed as tumor growth retardation at 4 mg/kg, ip administered every day for 6 days in combination with etoposide at 2 mg/kg, ip administered every day for 6 days; format: functional, organism-based; settings: time 6.0 day
# [28] = target: DNA topoisomerase 2-alpha (Homo sapiens) (UniProt P11388); assay: Catalytic inhibitor of non-intercalative topoisomerase 2alpha (unknown origin) assessed as binding to minor groove at 250 to 500 uM measured by cleavage complex assay; settings: dose 250-500 µM
# [29] = system: HCT-15; assay: Induction of apoptosis in human HCT-15 cells assessed as change in c-caspase 7 level at 2 to 5 uM in presence of 1 nM camptothecin and measured by Western blot analysis; format: functional, cell-based; settings: dose 2-5 µM
# [30] = system: HCT-15; assay: Induction of apoptosis in human HCT-15 cells assessed as change in c-PARP level at 2 to 5 uM in presence of 1 nM camptothecin and measured by Western blot analysis; format: functional, cell-based; settings: dose 2-5 µM
compound,measurement,setting,value
O=C1c2ccccc2-c2nc(-c3ccc(Br)cc3)cc(-c3ccccc3)c21,inhibition,[1],6.6%
same,KSV,[2],2.09 10^6/M
same,Activity,[3],Active
same,Activity,[4],Non-Toxic
same,inhibition,[5],Active
same,IC50,[6],7.84 µM
same,Activity,[7],Non-Toxic
same,Activity,[8],Non-Toxic
same,Activity,[9],Non-Toxic
same,Activity,[10],Non-Toxic
same,Activity,[11],Non-Toxic
same,Activity,[12],Non-Toxic
same,Activity,[13],Non-Toxic
same,Activity,[14],Non-Toxic
same,Activity,[15],Active
same,Activity,[16],Non-Toxic
same,inhibition,[17],1.8%
same,Activity,[18],Active
same,IC50 at 72 h,[19],> 10 µM
same,IC50,[20],4.84 µM
same,Activity,[21],Non-Toxic
same,Activity,[22],Active
same,IC50 at 72 h,[23],> 10 µM
same,Activity,[24],Non-Toxic
same,Activity,[25],Non-Toxic
same,Activity,[26],Non-Toxic
same,Activity,[27],Active
same,inhibition,[28],Active
same,Activity,[29],Active
same,Activity,[30],Active
